Reference: ChEMBL document CHEMBL3508140 (2016)

How the values were obtained:
[1] = Terminal half-life of doxorubicin following intravenous doxorubicin at 1.27 mg.Kg-1 dose in dog; assay type: ADME, organism-based, Canis lupus familiaris, Beagle, Plasma; parameters: dose 1.27 mg.Kg-1, dosed compound id 2.46809e+06, dosed compound name Doxorubicin, route intravenous; settings: in vivo
[2] = Volume of distribution of adriamycin following intravenous adriamycin at 1.27 mg.Kg-1 dose in dog; assay type: ADME, organism-based, Canis lupus familiaris; parameters: dose 1.27 mg.Kg-1, dosed compound id 2.46809e+06, dosed compound name Doxorubicin, route intravenous; settings: Beagle, plasma
[3] = Plasma clearance of adriamycin following intravenous adriamycin at 1.27 mg.Kg-1 dose in dog; assay type: ADME, organism-based, Canis lupus familiaris; parameters: dose 1.27 mg.Kg-1, dosed compound id 2.46809e+06, dosed compound name Doxorubicin, route intravenous; settings: Beagle, read-out: Clp
[4] = Mortality occurred following reference intravenous doxorubicin at 1 mg.Kg-1 per week in rat; assay type: toxicity, organism-based, SD; parameters: dose 1 mg.Kg-1, dosed compound id 2.46809e+06, dosed compound name Doxorubicin, dose level High, gender Mixed, regimen Once per week, route intravenous, sampling time 17 Week, study doses 0/0.3/0.6/1 mg.Kg-1; settings: in vivo
[5] = Decrease in leukocytes observed following reference intravenous doxorubicin at 1 mg.Kg-1 per week in rat; assay type: toxicity, organism-based, SD, Blood; parameters: dose 1 mg.Kg-1, dosed compound id 2.46809e+06, dosed compound name Doxorubicin, dose level High, gender Mixed, regimen Once per week, route intravenous, sampling time 36 Week, study doses 0/0.3/0.6/1 mg.Kg-1; settings: in vivo
[6] = Increase in serum triglycerides level following reference intravenous doxorubicin at 1 mg.Kg-1 per week in rat; assay type: toxicity, organism-based, SD; parameters: dose 1 mg.Kg-1, dosed compound id 2.46809e+06, dosed compound name Doxorubicin, dose level High, gender Mixed, regimen Once per week, route intravenous, sampling time 8-22 Week, study doses 0/0.3/0.6/1 mg.Kg-1; settings: in vivo
[7] = Increase in serum total cholesterol level following reference intravenous doxorubicin at 1 mg.Kg-1 per week in rat; assay type: toxicity, organism-based, SD; parameters: dose 1 mg.Kg-1, dosed compound id 2.46809e+06, dosed compound name Doxorubicin, dose level High, gender Mixed, regimen Once per week, route intravenous, sampling time 8-22 Week, study doses 0/0.3/0.6/1 mg.Kg-1; settings: in vivo
[8] = Increase in serum phospholipid level following reference intravenous doxorubicin at 1 mg.Kg-1 per week in rat; assay type: toxicity, organism-based, SD; parameters: dose 1 mg.Kg-1, dosed compound id 2.46809e+06, dosed compound name Doxorubicin, dose level High, gender Mixed, regimen Once per week, route intravenous, sampling time 8-22 Week, study doses 0/0.3/0.6/1 mg.Kg-1; settings: in vivo
[9] = Incidence of persistent proteinuria following reference intravenous doxorubicin at 1 mg.Kg-1 per week in rat; assay type: toxicity, organism-based, SD; parameters: dose 1 mg.Kg-1, dosed compound id 2.46809e+06, dosed compound name Doxorubicin, dose level High, gender Mixed, regimen Once per week, route intravenous, sampling time 36 Week, study doses 0/0.3/0.6/1 mg.Kg-1; settings: in vivo
[10] = Incidence of leukocyturia following reference intravenous doxorubicin at 1 mg.Kg-1 per week in rat; assay type: toxicity, organism-based, SD; parameters: dose 1 mg.Kg-1, dosed compound id 2.46809e+06, dosed compound name Doxorubicin, dose level High, gender Mixed, regimen Once per week, route intravenous, sampling time 36 Week, study doses 0/0.3/0.6/1 mg.Kg-1; settings: in vivo
[11] = Decrease in albumin due to persistent proteinuria following reference intravenous doxorubicin at 1 mg.Kg-1 per week in rat; assay type: toxicity, organism-based, SD, Serum; parameters: dose 1 mg.Kg-1, dosed compound id 2.46809e+06, dosed compound name Doxorubicin, dose level High, gender Mixed, regimen Once per week, route intravenous, sampling time 36 Week, study doses 0/0.3/0.6/1 mg.Kg-1; settings: in vivo
[12] = Volume of distribution at steady state following doxorubicin at 60 mg.m-2 dose in patients with cancer; assay type: ADME, organism-based; parameters: dose 60 mg.m-2, dosed compound id 2.46809e+06, dosed compound name Doxorubicin; settings: human, plasma, read-out: Vss
Homo sapiens = organism: Homo sapiens; experiment: Binding of doxorubicin to plasma protein of human; assay type: cell-free
Albumin = Albumin (Homo sapiens, UniProt P02768); experiment: Binding of doxorubicin to albumin; assay type: cell-free; settings: read-out: Plasma protein binding (converted)
[13] = Percentage of doxorubicin excreted unchanged in urine following doxorubicin at 60 mg.m-2 dose in cancer patients; assay type: ADME, organism-based; parameters: dose 60 mg.m-2, dosed compound id 2.46809e+06, dosed compound name Doxorubicin; settings: human, at 60 mg/m2, read-out: Compound recovery
[14] = Renal clearance of doxorubicin following doxorubicin at 60 mg.m-2 dose in cancer patients; assay type: ADME, organism-based, Kidney; settings: human, in vivo, iv, read-out: Renal clearance (converted)
[15] = Elimination of doxorubicin following doxorubicin at 60 mg.m-2 dose in cancer patients; assay type: ADME, organism-based, Plasma; settings: human, in vivo, iv
[16] = Mean plasma clearance of doxorubicin following intravenous doxorubicin at 60 mg.m-2 dose in cancer patients; assay type: ADME, organism-based; settings: human, read-out: CLp (converted)
[17] = Mean terminal half-life of doxorubicin following intravenous doxorubicin at 60 mg.m-2 dose in cancer patients; settings: human, plasma
[18] = Mean AUC of doxorubicin following intravenous doxorubicin at 60 mg.m-2 dose in cancer patients; assay type: ADME, organism-based; settings: human, plasma
[19] = Detection of doxorubicin in plasma following single intravenous doxorubicin at 10 mg.Kg-1 dose in female mouse bearing colon tumor; assay type: ADME, organism-based, BALB/c; parameters: dose 10 mg.Kg-1, dosed compound id 2.46809e+06, dosed compound name Doxorubicin, gender F, regimen Single, route intravenous, sampling time 48 h; settings: in vivo
[20] = Detection of doxorubicin in heart following single intravenous doxorubicin at 10 mg.Kg-1 dose in female mouse bearing colon tumor; assay type: ADME, organism-based, BALB/c; parameters: dose 10 mg.Kg-1, dosed compound id 2.46809e+06, dosed compound name Doxorubicin, gender F, regimen Single, route intravenous, sampling time 48 h; settings: in vivo
[21] = Detection of doxorubicin in tumor following single intravenous doxorubicin at 10 mg.Kg-1 dose in female mouse bearing colon tumor; assay type: ADME, organism-based, BALB/c, Neoplasm; parameters: dose 10 mg.Kg-1, dosed compound id 2.46809e+06, dosed compound name Doxorubicin, gender F, regimen Single, route intravenous, sampling time 48 h; settings: in vivo
[22] = AUC values (0-48 h) of doxorubicin in plasma following single intravenous doxorubicin at 10 mg.Kg-1 dose in female mouse bearing colon tumor; assay type: ADME, organism-based, BALB/c; parameters: time < 48 hr, dose 10 mg.Kg-1, dosed compound id 2.46809e+06, dosed compound name Doxorubicin, gender F, regimen Single, route intravenous, sampling time 48 h; settings: in vivo
[23] = AUC values (0-48 h) of doxorubicin in heart following single intravenous doxorubicin at 10 mg.Kg-1 dose in female mouse bearing colon tumor; assay type: ADME, organism-based, BALB/c; parameters: time < 48 hr, dose 10 mg.Kg-1, dosed compound id 2.46809e+06, dosed compound name Doxorubicin, gender F, regimen Single, route intravenous, sampling time 48 h; settings: in vivo
[24] = AUC values (0-48 h) of doxorubicin in tumor following single intravenous doxorubicin at 10 mg.Kg-1 dose in female mouse bearing colon tumor; assay type: ADME, organism-based, BALB/c, Neoplasm; parameters: time < 48 hr, dose 10 mg.Kg-1, dosed compound id 2.46809e+06, dosed compound name Doxorubicin, gender F, regimen Single, route intravenous, sampling time 48 h; settings: in vivo
[25] = (§1) Urinary elimination of adriamycin following intravenous bolus adriamycin at 10 mg.Kg-1 dose in rat; assay type: ADME, organism-based; parameters: dose 10 mg.Kg-1, dosed compound id 2.46809e+06, dosed compound name Doxorubicin, route intravenous, sampling time 0-6 h; settings: SD, urine, read-out: Compound recovery
[26] = as §1; assay type: ADME, organism-based; parameters: dose 10 mg.Kg-1, dosed compound id 2.46809e+06, dosed compound name Doxorubicin, route intravenous, sampling time 0-24 h; settings: SD, urine, read-out: Compound recovery
[27] = as §1; assay type: ADME, organism-based; parameters: dose 10 mg.Kg-1, dosed compound id 2.46809e+06, dosed compound name Doxorubicin, route intravenous, sampling time 0-60 h; settings: SD, urine, read-out: Compound recovery
in vivo [28] = settings: Beagle, dog, plasma, iv, 1.27 mg/kg
in vivo [29] = settings: female, BALB/c, mouse, plasma, iv, 10 mg/kg
in vivo [30] = settings: female, BALB/c, mouse, heart, iv, 10 mg/kg
in vivo [31] = settings: female, BALB/c, mouse, tumor, iv, 10 mg/kg

Sequence of Albumin (P02768 whole entry): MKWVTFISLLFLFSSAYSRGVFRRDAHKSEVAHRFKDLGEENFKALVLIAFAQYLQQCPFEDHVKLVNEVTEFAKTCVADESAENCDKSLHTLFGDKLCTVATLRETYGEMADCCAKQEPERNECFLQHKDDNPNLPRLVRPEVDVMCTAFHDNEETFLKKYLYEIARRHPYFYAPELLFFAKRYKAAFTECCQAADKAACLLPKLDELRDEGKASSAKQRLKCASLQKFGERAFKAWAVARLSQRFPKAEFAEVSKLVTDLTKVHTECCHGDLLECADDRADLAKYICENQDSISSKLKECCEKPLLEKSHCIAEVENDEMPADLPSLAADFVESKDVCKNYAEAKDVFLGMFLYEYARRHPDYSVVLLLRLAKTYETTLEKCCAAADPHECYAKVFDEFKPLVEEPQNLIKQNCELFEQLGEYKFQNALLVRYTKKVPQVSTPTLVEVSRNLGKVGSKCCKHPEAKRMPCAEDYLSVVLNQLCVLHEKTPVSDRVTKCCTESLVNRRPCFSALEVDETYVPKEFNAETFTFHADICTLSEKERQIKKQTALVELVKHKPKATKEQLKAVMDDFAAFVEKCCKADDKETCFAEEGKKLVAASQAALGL

COc1cccc2c1C(=O)c1c(O)c3c(c(O)c1C2=O)C[C@@](O)(C(=O)CO)C[C@@H]3O[C@H]1C[C@H](N)[C@H](O)[C@H](C)O1 [DOXORUBICIN]
t1/2 [1]: VALUE = Shorter than doxorubicin | Vd [2]: 19.1 L/kg | clearance [3]: 607 mL/min | Mortality [4]: OUTCOME = Observed, N_AFFECTED = 9 | WBC_CHANGE [5]: 45% | TRIG_CHANGE [6]: OUTCOME = Increased | CHOL_CHANGE [7]: OUTCOME = Increased | PHOSLPD_CHANGE [8]: OUTCOME = Increased | Incidence [9]: OUTCOME = Observed | Incidence [10]: OUTCOME = Observed | ALB_CHANGE [11]: OUTCOME = Decreased | Vd [12]: 33 L/kg | PPB (Homo sapiens): 71% | fraction unbound (Albumin): 0.38 | dose excreted at 7 Day [13]: 9% | CL renal [14]: 76.7 mL/min | Elimination [15]: OUTCOME = Observed | clearance [16]: 950 mL/min | half-life [17]: 48 h | AUC [18]: 1970 ng·h/mL | Compound recovery [19]: OUTCOME = Observed | Compound recovery [20]: OUTCOME = Observed | Compound recovery [21]: OUTCOME = Observed | AUC [22]: 204.9 nmol·min/mL | AUC [23]: 14100 nmol·min/g | AUC [24]: 8700 nmol·min/g | dose excreted [25]: 2.08% | dose excreted [26]: 2.77% | dose excreted [27]: 3.33% | half-life (in vivo [28]): 5.4 min | half-life (in vivo [29]): 49.5 h | half-life (in vivo [30]): 13.2 h | half-life (in vivo [31]): 32.1 h
